# From patent publication US20250213735A1, “NEUROPEPTIDE Y1 RECEPTOR (NPY1R) TARGETED THERAPEUTICS AND USES THEREOF” (Radionetics Oncology, Inc., priority 2023, published 2025)
# Numbered stars: 1 amine (or outer) side, 2 acyl side, 3 side chain; on linkers, the order of the positions; unused ones are H or OH. Square brackets hold non-standard residues; d marks the D form. Peptide text beside a SMILES is read from it. * marks the point of attachment. dArg(Nω-CONH(CH2)2NHCOEt) = CCC(=O)NCCNC(=O)/N=C(/N)NCCC[C@@H](N)C(=O)O; DOTA = O=C(O)CN1CCN(CC(=O)O)CCN(CC(=O)*)CCN(CC(=O)O)CC1; X2 = O=C([C@H](c1cccc(NCCCN[*:1])c1)N1Cc2ccccc2C1)[*:2]; NH(4-OH-benzyl) = Oc1ccc(CN*)cc1; Sar = CNCC(=O)O
# Molecular target: hNPY1R (Homo sapiens (Human), UniProt P25929)
# Test: NPY1R binding assay (SK-N-MC membrane, [125I]-Peptide YY competition);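 also: bound radioligand separated by filtration over GF/C filter plates and counted, Ki obtained by non-linear regression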
# Settings: crude SK-N-MC membranes endogenously expressing NPY1R; [125I]-Peptide YY (human) 0.05 nM; 120 min at room temperature; read-out: hNPY1R binding Ki
# hNPY1R, sequence (P25929 whole entry): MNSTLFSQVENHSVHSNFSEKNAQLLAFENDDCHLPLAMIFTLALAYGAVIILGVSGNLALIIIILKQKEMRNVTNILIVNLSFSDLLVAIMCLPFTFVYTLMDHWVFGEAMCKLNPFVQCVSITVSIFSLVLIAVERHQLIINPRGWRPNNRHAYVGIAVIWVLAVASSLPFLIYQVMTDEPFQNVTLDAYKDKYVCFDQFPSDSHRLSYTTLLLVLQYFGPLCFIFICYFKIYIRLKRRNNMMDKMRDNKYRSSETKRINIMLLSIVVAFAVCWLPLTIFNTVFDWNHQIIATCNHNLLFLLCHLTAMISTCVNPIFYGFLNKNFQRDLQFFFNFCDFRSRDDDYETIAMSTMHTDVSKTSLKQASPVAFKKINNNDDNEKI
row,Ki,SMILES
1,100 to 1000 nM,"CC(C)CC1CCN(C(C(=O)N[C@H](CCCNC(=N)N)C(=O)NCc2ccc(O)cc2)c2ccccc2)CC1 (stereo partly drawn) [compound 82, (2R)-5-guanidino-N-(4-hydroxybenzyl)-2-(2-(4-isobutylpiperidin-1-yl)-2-phenylacetamido)pentanamide]"
2,< 10 nM,"CCC(=O)NCCNC(=O)/N=C(/N)NCCC[C@@H](NC(=O)[C@H](c1cccc(NCCCNC(=O)CN(C)C(=O)CN(C)C(=O)CN(C)C(=O)CN2CCN(CC(=O)O)CCN(CC(=O)O)CCN(CC(=O)O)CC2)c1)N1Cc2ccccc2C1)C(=O)NCc1ccc(O)cc1 [compound 21, 2,2′,2″-(10-(15-((3-((1S,4R,Z)-9-amino-4-((4-hydroxybenzyl)carbamoyl)-1-(isoindolin-2-yl)-2,11,16-trioxo-3,8,10,12,15-pentaazaoctadec-9-en-1-yl)phenyl)amino)-3,6,9-trimethyl-2,5,8,11-tetraoxo-3,6,9,12-tetraazapentadecyl)-1,4,7,10-tetraazacyclododecane-1,4,7-triyl)triacetic acid] ({DOTA}-[Sar][Sar][Sar][X2][dArg(Nω-CONH(CH2)2NHCOEt)]-{NH(4-OH-benzyl)})"
3,< 10 nM,"CCC(=O)NCCNC(=O)/N=C(/N)NCCC[C@@H](NC(=O)[C@H](c1ccc(OCCCNC(=O)[C@@H](CO)NC(=O)CCNC(=O)CN2CCN(CC(=O)O)CCN(CC(=O)O)CCN(CC(=O)O)CC2)cc1)N1Cc2ccccc2C1)C(=O)NCc1c(F)cc(O)cc1F [compound 48, 2,2′,2″-(10-(2-((3-(((R)-1-((3-(4-((1S,4R,Z)-9-amino-4-((2,6-difluoro-4-hydroxybenzyl)carbamoyl)-1-(isoindolin-2-yl)-2,11,16-trioxo-3,8,10,12,15-pentaazaoctadec-9-en-1-yl)phenoxy)propyl)amino)-3-hydroxy-1-oxopropan-2-yl)amino)-3-oxopropyl)amino)-2-oxoethyl)-1,4,7,10-tetraazacyclododecane-1,4,7-triyl)triacetic acid]"
4,< 10 nM,"CCC(=O)NCCNC(=O)/N=C(/N)NCCC[C@@H](NC(=O)[C@H](c1cccc(NCCCNC(=O)[C@H](N)CCCCNC(=O)CN2CCN(CC(=O)O)CCN(CC(=O)O)CCN(CC(=O)O)CC2)c1)N1Cc2ccccc2C1)C(=O)NCc1ccc(O)cc1 [compound 25, 2,2′,2″-(10-(2-(((R)-5-amino-6-((3-((3-((1S,4R,Z)-9-amino-4-((4-hydroxybenzyl)carbamoyl)-1-(isoindolin-2-yl)-2,11,16-trioxo-3,8,10,12,15-pentaazaoctadec-9-en-1-yl)phenyl)amino)propyl)amino)-6-oxohexyl)amino)-2-oxoethyl)-1,4,7,10-tetraazacyclododecane-1,4,7-triyl)triacetic acid]"
5,< 10 nM,"CCC(=O)NCCNC(=O)/N=C(/N)NCCC[C@@H](NC(=O)[C@H](c1ccc(OCCCNC(=O)C[C@H]2NC(=O)[C@@H](CCNC(=O)CN3CCN(CC(=O)O)CCN(CC(=O)O)CCN(CC(=O)O)CC3)NC2=O)cc1)N1Cc2ccccc2C1)C(=O)NCc1c(F)cc(O)cc1F [compound 52, 2,2′,2″-(10-(2-((2-((2R,5R)-5-(2-((3-(4-((1S,4R,Z)-9-amino-4-((2,6-difluoro-4-hydroxybenzyl)carbamoyl)-1-(isoindolin-2-yl)-2,11,16-trioxo-3,8,10,12,15-pentaazaoctadec-9-en-1-yl)phenoxy)propyl)amino)-2-oxoethyl)-3,6-dioxopiperazin-2-yl)ethyl)amino)-2-oxoethyl)-1,4,7,10-tetraazacyclododecane-1,4,7-triyl)triacetic acid]"
6,100 to 1000 nM,"CCCC1CCN([C@H](C(=O)N[C@H](CCCNC(=N)N)C(=O)NCc2ccc(O)cc2)c2ccccc2)CC1 [compound 78, (R)-5-guanidino-N-(4-hydroxybenzyl)-2-((S)-2-phenyl-2-(4-propylpiperidin-1-yl)acetamido)pentanamide]"
7,< 10 nM,"CCNC(=O)/N=C(/N)NCCC[C@@H](NC(=O)C(c1ccccc1)N1CCC(C(C)(C)C)CC1)C(=O)NCc1c(F)cc(O)cc1F (stereo partly drawn) [compound 92, (2R)-2-(2-(4-(tert-butyl)piperidin-1-yl)-2-phenylacetamido)-N-(2,6-difluoro-4-hydroxybenzyl)-5-((Z)-2-(ethylcarbamoyl)guanidino)pentanamide]"
8,100 to 1000 nM,"N=C(N)NCCC[C@@H](NC(=O)C(c1ccccc1)N1CCC2(CCCC2)CC1)C(=O)NCc1ccc(O)cc1 (stereo partly drawn) [compound 84, (2R)-5-guanidino-N-(4-hydroxybenzyl)-2-(2-phenyl-2-(8-azaspiro[4.5]decan-8-yl)acetamido)pentanamide]"
9,100 to 1000 nM,"N=C(N)NCCC[C@@H](NC(=O)C(c1ccccc1)N1CCC(C(F)(F)F)CC1)C(=O)NCc1ccc(O)cc1 (stereo partly drawn) [compound 73, (2R)-5-guanidino-N-(4-hydroxybenzyl)-2-(2-phenyl-2-(4-(trifluoromethyl)piperidin-1-yl)acetamido)pentanamide]"
10,> 1000 nM,"CC1(C)C2CN([C@@H](C(=O)N[C@H](CCCNC(=N)N)C(=O)NCc3ccc(O)cc3)c3ccccc3)CC21 (stereo partly drawn) [88B, (2R)-2-((2R)-2-(6,6-dimethyl-3-azabicyclo[3.1.0]hexan-3-yl)-2-phenylacetamido)-5-guanidino-N-(4-hydroxybenzyl)pentanamide]"

# The next lines start with the compound.
row,SMILES,Ki
1,"CCC(=O)NCCNC(=O)/N=C(/N)NCCC[C@@H](NC(=O)[C@H](c1ccc(OCCCNC(=O)C[C@H](O)C[C@H](O)CCNC(=O)CCC(=O)NCCNC(=O)CN2CCN(CC(=O)O)CCN(CC(=O)O)CCN(CC(=O)O)CC2)cc1)N1Cc2ccccc2C1)C(=O)NCc1c(F)cc(O)cc1F [compound 53, 2,2′,2″-(10-((14R,16R)-22-(4-((1S,4R,Z)-9-amino-4-((2,6-difluoro-4-hydroxybenzyl)carbamoyl)-1-(isoindolin-2-yl)-2,11,16-trioxo-3,8,10,12,15-pentaazaoctadec-9-en-1-yl)phenoxy)-14,16-dihydroxy-2,7,10,18-tetraoxo-3,6,11,19-tetraazadocosyl)-1,4,7,10-tetraazacyclododecane-1,4,7-triyl)triacetic acid]",< 10 nM
2,"CCC(=O)NCCNC(=O)/N=C(/N)NCCC[C@@H](NC(=O)[C@H](c1ccccc1)N1Cc2cccc(NCCCNC(=O)C[C@H]3NC(=O)[C@@H](CCCNC(=O)CN4CCN(CC(=O)O)CCN(CC(=O)O)CCN(CC(=O)O)CC4)NC3=O)c2C1)C(=O)NCc1c(F)cc(O)cc1F [compound 40, 2,2′,2″-(10-(2-((3-((2R,5R)-5-(2-((3-((2-((1S,4R,Z)-9-amino-4-((2,6-difluoro-4-hydroxybenzyl)carbamoyl)-2,11,16-trioxo-1-phenyl-3,8,10,12,15-pentaazaoctadec-9-en-1-yl)isoindolin-4-yl)amino)propyl)amino)-2-oxoethyl)-3,6-dioxopiperazin-2-yl)propyl)amino)-2-oxoethyl)-1,4,7,10-tetraazacyclododecane-1,4,7-triyl)triacetic acid]",< 10 nM
3,"CCC(=O)NCCNC(=O)/N=C(/N)NCCC[C@@H](NC(=O)[C@H](c1ccccc1)N1Cc2ccccc2C1)C(=O)NCc1c(F)cc(O)cc1F [61A, (R)—N-(2,6-difluoro-4-hydroxybenzyl)-2-((S)-2-(isoindolin-2-yl)-2-phenylacetamido)-5-((Z)-2-((2-propionamidoethyl)carbamoyl)guanidino)pentanamide]",< 10 nM
4,"CCC(=O)NCCNC(=O)/N=C(/N)NCCC[C@@H](NC(=O)[C@H](c1cccc(NCCCNC(=O)NOCCNC(=O)CN2CCN(CC(=O)O)CCN(CC(=O)O)CCN(CC(=O)O)CC2)c1)N1Cc2ccccc2C1)C(=O)NCc1ccc(O)cc1 [compound 22, 2,2′,2″-(10-(12-((3-((1S,4R,Z)-9-amino-4-((4-hydroxybenzyl)carbamoyl)-1-(isoindolin-2-yl)-2,11,16-trioxo-3,8,10,12,15-pentaazaoctadec-9-en-1-yl)phenyl)amino)-2,8-dioxo-6-oxa-3,7,9-triazadodecyl)-1,4,7,10-tetraazacyclododecane-1,4,7-triyl)triacetic acid]",< 10 nM
5,"CCC(=O)NCCNC(=O)/N=C(/N)NCCC[C@@H](NC(=O)[C@H](c1cccc(OCCCNC(=O)CCCCCNC(=O)CN2CCN(CC(=O)O)CCN(CC(=O)O)CCN(CC(=O)O)CC2)c1)N1Cc2ccccc2C1)C(=O)NCc1ccc(O)cc1 [compound 12, 2,2′,2″-(10-(2-((6-((3-(3-((1S,4R,Z)-9-amino-4-((4-hydroxybenzyl)carbamoyl)-1-(isoindolin-2-yl)-2,11,16-trioxo-3,8,10,12,15-pentaazaoctadec-9-en-1-yl)phenoxy)propyl)amino)-6-oxohexyl)amino)-2-oxoethyl)-1,4,7,10-tetraazacyclododecane-1,4,7-triyl)triacetic acid]",< 10 nM
6,"CCC(=O)NCCNC(=O)/N=C(/N)NCCC[C@@H](NC(=O)[C@H](c1ccc(OCCCN2CCN(C(=O)CCCCCNC(=O)CN3CCN(CC(=O)O)CCN(CC(=O)O)CCN(CC(=O)O)CC3)CC2)cc1)N1Cc2ccccc2C1)C(=O)NCc1c(F)cc(O)cc1F [compound 39, 2,2′,2″-(10-(2-((6-(4-(3-(4-((1S,4R,Z)-9-amino-4-((2,6-difluoro-4-hydroxybenzyl)carbamoyl)-1-(isoindolin-2-yl)-2,11,16-trioxo-3,8,10,12,15-pentaazaoctadec-9-en-1-yl)phenoxy)propyl)piperazin-1-yl)-6-oxohexyl)amino)-2-oxoethyl)-1,4,7,10-tetraazacyclododecane-1,4,7-triyl)triacetic acid]",< 10 nM
7,"CCNC(=O)/N=C(/N)NCCC[C@@H](NC(=O)[C@H](c1cccc(NCCCNC(=O)[C@H](N)CCCCNC(=O)CN2CCN(CC(=O)O)CCN(CC(=O)O)CCN(CC(=O)O)CC2)c1)N1Cc2ccccc2C1)C(=O)NCc1c(F)cc(O)cc1F [compound 13, 2,2′,2″-(10-(2-(((R)-5-amino-6-((3-((3-((11R,14S,Z)-6-amino-11-((2,6-difluoro-4-hydroxybenzyl)carbamoyl)-14-(isoindolin-2-yl)-4,13-dioxo-3,5,7,12-tetraazatetradec-5-en-14-yl)phenyl)amino)propyl)amino)-6-oxohexyl)amino)-2-oxoethyl)-1,4,7,10-tetraazacyclododecane-1,4,7-triyl)triacetic acid]",< 10 nM
